“And” between values parts separate entries of the source, which are not always exact repeats. Equal entries are not always repeated.
Legend:
[1] = tested on: spleen cell suspensions stimulated with anti-CD3 antibody; test: anti-CD3 induced proliferation of spleen cells from peptide-treated mice; format: cell-based; settings: mice treated i.p. 0.5 or 5 mg/kg for one hour; 0, 12, 24 and 48 hours culture
Experimental: FIG. 4: A test on representative oligopeptides for their effect on proliferation during rapid growth of murine monocytes induced by CD3 when avid cell division occurs. Mice (n=5) were treated i.p. PBS, Nak4 (LQGV (SEQ ID NO:117)), Nak47 (LAGV (SEQ ID NO:121)), Nak46 (AQGV (SEQ ID NO:120)) provided by Ansynth BV, The Netherlands, or Nak46* (AQGV (SEQ ID NO:120) provided by Diosynth BV, The Netherlands). Mice were treated with 0.5 mg/kg of 5 mg/kg peptide for one hour, after which, spleens were isolated and spleen cell suspensions were made. Spleen cell suspensions were pooled per group and cultured in vitro (in three-fold) in the presence of PBS or of anti-CD3 antibody and proliferation was tested at 0, 12, 24 and 48 hours after culture.
To further study anti-cell-cycle activity of various oligopeptides, an in vitro experiment in […] of mice stimulated with anti-CD3 was performed. The aim was to test representative oligopeptides for their effect on proliferation during rapid growth induced by CD3 when avid cell division occurs. Mice (n=5) were treated i.p. PBS, Nak4 (LQGV (SEO ID NO:117)), Nak47 (LAGV (SEQ ID NO:121)), Nak46 (AQGV (SEQ ID NO:120)) provided by Ansynth BV, The Netherlands, or Nak46* (AQGV (SEQ ID NO:120) provided by Diosynth BV, The Netherlands). Mice were treated with 0.5 mg/kg or 5 mg/kg peptide for one hour after which spleens were isolated and spleen cell suspensions were made. Spleen cell suspensions were pooled per group and cultured in vitro (in three-fold) in the presence of PBS or of anti-CD3 antibody and proliferation was tested at 0, 12, 24 and 48 hours after culture.

[2] = tested on: cell-cycle marker pCDG and auxin-responsive marker DR5::GUS; test: Arabidopsis thaliana seedling cell-cycle analysis (GUS markers); settings: Results from Examples 9 and 10
Method in brief: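 Four-day-old Ws-0 seedlings carrying GUS reporters (pCDG, DR5::GUS) were exposed to peptides at 5 mg/ml in PBS pH 8 for four and eight hours. GUS staining with 2 mM X-Gluc for 16 hours; distribution in root, root-hypocotyl transition zone and cotyledons assessed by DIC microscopy after chloral hydrate clearing.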

[3] = tested on: LPS (E. coli 026:B6)-induced septic shock in BALB/c mice; test: LPS-induced septic shock, single dose of peptide; format: in vivo
Experimental: Mice used in sepsis or septic shock experiments: Female BALB/c mice of eight to twelve weeks of age were used for all experiments. The animals were bred in our facility under specific pathogen-free conditions according to the protocols described in the […] of European Laboratory Animal Science Associations (FELASA) Working group on Animal Health (Laboratory Animals 28:1-24, 1994).
Injection protocols: For the endotoxin model, BALB/c mice were injected i.p. with 150-300 μg LPS (E. coli 026:B6; Difco Lab., Detroit, Mich., USA). Control groups were treated with PBS i.p. only. To test the effect of peptides, they were dissolved in PBS and injected i.p. at predetermined points in time after LPS treatment.
Mice were scored for sickness severity using the following measurement scheme: • 0 No abnormalities. • 1 Percolated fur, but no detectable behavior differences compared to normal mice. • 2 Percolated fur, huddle reflex, responds to stimuli (such as tap on cage), just as active during handling as healthy mouse. • 3 Slower response to tap on cage, passive or docile when handled, but still curious when alone in a new setting. • 4 Lack of curiosity, little or no response to stimuli, quite immobile. • 5 Labored breathing, inability or slow to self-right after being rolled onto back (moribund, sacrificed). • D Dead.
A first set of septic shock experiments were set up to determine which of the peptides LQG, LQGV (SEQ ID NO:117), VLPALP (SEQ ID NO:140), VLPALPQ (SEQ ID NO:143), MTR, MTRV (SEQ ID NO:119), VVC or QVVC (SEQ ID NO:118) were capable of inhibiting lipopolysaccharide (LPS)-induced septic shock in mice by treating mice with a single dose of peptide at two hours after LPS treatment. Peptides were used at 5 mg/kg bodyweight. BALB/c mice were injected i.p. with escalating doses LPS (E. coli 026:B6; Difco Lab., Detroit, Mich. USA), predetermined to be leading to 80 to 100% mortality in 24 to 72 hours.
To test the effect of peptide early in the development of shock, mice were treated at two hours or at 24 hours after treatment with varying doses of LPS by i.p. injection with test peptide at 5 mg/kg bodyweight.

[4] = LPS dose 7**, single dose 5 mg/kg
[5] = LPS dose 7*, single dose 5 mg/kg
[6] = LPS dose 8, single dose 5 mg/kg
[7] = LPS dose 8, single dose 5 mg/kg, 5 mg/kg
[8] = LPS dose 9, single dose 5 mg/kg
[9] = LPS dose 9, single dose 5 mg/kg, 5 mg/kg
[10] = LPS dose 10, single dose 5 mg/kg
[11] = LPS dose 10, single dose 5 mg/kg, 5 mg/kg

## LAGV (tetramer peptide)
[1]
  proliferation of anti-CD3 stimulated spleen cells (in words): reduction of proliferation
[2]
  identified as useful peptide for treatment of radiation injury from cell-cycle studies in plants and in vitro proliferation studies: useful

## VLPALP (hexamer peptide)
[3]; 5 mg/kg i.p.
  protective effect against LPS-induced sepsis (in words): marked protective effect
[3]; [4]
  mice with sickness score 1, effect at t = 24 hours: 5
  mice with sickness score 1, effect at t = 48 hours: 5
  mice with sickness score 2, effect at t = 24 hours: 1
  mice with sickness score 2, effect at t = 48 hours: 1
[3]; [5]
  mice with sickness score 1, effect at t = 24 hours: 4
  mice with sickness score 1, effect at t = 48 hours: 5
  mice with sickness score 2, effect at t = 24 hours: 2
  mice with sickness score 2, effect at t = 48 hours: 1
[3]; [6]
  mice with sickness score 0, effect at t = 48 hours: 2
  mice with sickness score 3, effect at t = 48 hours: 1
[3]; [7]
  mice with sickness score 1, effect at t = 24 hours: 3 and 2
  mice with sickness score 1, effect at t = 48 hours: 3 and 5
  mice with sickness score 2, effect at t = 48 hours: 2 and 1
[3]; [8]
  mice scored D (dead), effect at t = 48 hours: 1
  mice with sickness score 1, effect at t = 24 hours: 2
  mice with sickness score 3, effect at t = 48 hours: 1
  mice with sickness score 4, effect at t = 24 hours: 1
  mice with sickness score 5, effect at t = 48 hours: 2
[3]; [9]
  mice with sickness score 2, effect at t = 24 hours: 3 and 4
  mice with sickness score 2, effect at t = 48 hours: 2 and 1
  mice with sickness score 3, effect at t = 24 hours: 1 and 2
[3]; [10]
  mice scored D (dead), effect at t = 48 hours: 2
  mice with sickness score 2, effect at t = 48 hours: 2
  mice with sickness score 3, effect at t = 48 hours: 2
  mice with sickness score 5, effect at t = 48 hours: 1
[3]; [11]
  mice with sickness score 1, effect at t = 48 hours: 3 and 2
  mice with sickness score 2, effect at t = 24 hours: 3 and 4
  mice with sickness score 4, effect at t = 24 hours: 3 and 2
[2]
  identified as useful peptide for treatment of radiation injury from cell-cycle studies in plants and in vitro proliferation studies: useful

## AQGV
[1]
  proliferation of anti-CD3 stimulated spleen cells (in words): reduction of proliferation
[2]
  identified as useful peptide for treatment of radiation injury from cell-cycle studies in plants and in vitro proliferation studies: useful

## LQG
[3]; [4]
  mice scored D (dead), effect at t = 24 hours: 1
  mice scored D (dead), effect at t = 48 hours: 5
  mice with sickness score 4, effect at t = 24 hours: 3
  mice with sickness score 4, effect at t = 48 hours: 1
  mice with sickness score 5, effect at t = 24 hours: 2
[3]; [5]
  mice scored D (dead), effect at t = 48 hours: 4
  mice with sickness score 4, effect at t = 24 hours: 3
  mice with sickness score 5, effect at t = 24 hours: 3
  mice with sickness score 5, effect at t = 48 hours: 2
[3]; [6]
  mice scored D (dead), effect at t = 24 hours: 1
  mice scored D (dead), effect at t = 48 hours: 6
  mice with sickness score 2, effect at t = 24 hours: 2
  mice with sickness score 3, effect at t = 24 hours: 1
  mice with sickness score 3, effect at t = 48 hours: 1
  mice with sickness score 4, effect at t = 48 hours: 2
  mice with sickness score 5, effect at t = 24 hours: 4
  mice with sickness score 5, effect at t = 48 hours: 3
[3]; [10]
  mice with sickness score 3, effect at t = 24 hours: 1
  mice with sickness score 4, effect at t = 24 hours: 2
  mice with sickness score 4, effect at t = 48 hours: 1
  mice with sickness score 5, effect at t = 48 hours: 2
[3]; [11]
  mice scored D (dead), effect at t = 48 hours: 4 and 3
  mice with sickness score 5, effect at t = 24 hours: 4 and 3

— US7795226B2, “Control of radiation injury” (Biotempt B.V., priority 2006, dated 2010)
